From patent US10077236B2, “Azacyclic constrained analogs of FTY720” (The Regents of the University of California, priority 2013, dated 2018)
Where two headings read alike, the source gives them in different places. One block for each compound: values may come before it.

Legend:
[1] = test system: Sup-B15 BCR-ABL positive human acute lymphoblastic leukemia (ALL) cell line; assay: Cell viability assay, Sup-B15 leukemia cells (flow cytometry, vital dye exclusion); format: cell-based; conditions: for IC50: 72 h, vital dye exclusion and flow cytometry, read-out: Mean IC50 (+/- SEM) in cell viability assay, SupB15 Ph+ ALL; for ability to kill leukemia cells, potency compared in words: Sup-B15 cell viability assays
Text: (§1) Leukemia cell assays: Effects of chemical changes on ability to kill cells as observed in cell viability assays using the BCR-ABL positive human acute lymphoblastic leukemia (ALL) cell line, Sup-B15 are described. Assays using the Sup-B15 cell line were designed to determine efficacy of azacyclic constrained small molecule analogs of FTY720 in killing leukemia cells. Analogs were generated using the synthesis methods mentioned above. Sup-B15 cells were maintained at 2-3 million/mL in RPMI 1640 (by Mediatech™) supplemented with 10% fetal calf serum (by Sigma-Aldrich™), 10 mM Hepes (by Mediatech™), 55 μM β-mercaptoethanol (by Sigma-Aldrich™), 2 mM L-glutamine (by Mediatech™), and antibiotics. BV173, Nalm-6, and Blin-1 were maintained at 1-2 million/mL and CCRF-CEM at less than 500,000/mL in the same medium. BMp190 cells were created by transducing murine bone marrow cells with pMIC-p190 which expresses the p190 isoform of BCR-Abl and human CD4 from an IRES; these cells were kept at 1-2 million/mL in RPMI supplemented as above.
(§2) Flow cytometry: Much of the biological activity presented is shown through flow cytometry data. […] Here, IC50 flow cytometry assays were used. In them, viability was determined at 72 hours by vital dye exclusion [propium iodide or DAPI (4′,6-diamindino-2-phenylindole)]. To measure nutrient receptor expression following exposure to FTY720 and azacyclic constrained analogs of FTY720, surface 4F2hc expression was measured after 3 hours of drug treatment by staining 150,000 cells with phycoerythrin-conjugated mouse anti-human CD98 (by BD Biosciences™). Analysis was restricted to viable cells.
(§3) All samples for the disclosed sets of data were analyzed on a BD LSR II flow cytometer and data analyzed with FlowJo™ software (by Treestar™). IC50's were calculated and statistical tests were performed using GraphPad Prism™.

[2] = test system: DU145 prostate cancer cell line; assay: Cell viability assay, DU145; format: cell-based, human; conditions: 72 h, vital dye exclusion and flow cytometry, read-out: Mean IC50 (+/- SEM) in cell viability assay, DU145 prostate
Method: as §2, with “In them, viability was determined at 72 hours by vital dye exclusion [propium iodide or DAPI (4′,6-diamindino-2-phenylindole)].” left out, “cells. All samples for the disclosed sets of data were analyzed on a BD LSR II flow cytometer and data analyzed with FlowJo™ software (by Treestar™). IC50's were calculated and statistical tests were performed using GraphPad Prism™.” for “cells.”

[3] = test system: Blin-1 Ph- ALL cell line; assay: Cell viability assay, Blin-1; format: cell-based, human; conditions: 72 h, vital dye exclusion and flow cytometry, read-out: Mean IC50 (+/- SEM) in cell viability assay, Blin-1 Ph- ALL
Text: as §1, §2, §3

[4] = test system: Nalm-6 Ph- ALL cell line; assay: Cell viability assay, Nalm-6; format: cell-based, human; conditions: 72 h, vital dye exclusion and flow cytometry, read-out: Mean IC50 (+/- SEM) in cell viability assay, Nalm-6 Ph- ALL
Text: as §1, §2, §3

[5] = test system: PC3 prostate cancer cell line; assay: Cell viability assay, PC3; format: cell-based, human; conditions: 72 h, vital dye exclusion and flow cytometry, read-out: Mean IC50 (+/- SEM) in cell viability assay, PC3 prostate
Method: as §2, with “In them, viability was determined at 72 hours by vital dye exclusion [propium iodide or DAPI (4′,6-diamindino-2-phenylindole)].” left out, “cells. All samples for the disclosed sets of data were analyzed on a BD LSR II flow cytometer and data analyzed with FlowJo™ software (by Treestar™). IC50's were calculated and statistical tests were performed using GraphPad Prism™.” for “cells.”

[6] = target: T1, sphingosine kinase 2 (Mus musculus, UniProt Q9JIA7); assay: Phosphorylation by sphingosine kinase 2 in cells; format: cell-based
T1 construct: endogenous in cells
T1 sequence (Q9JIA7 1-617): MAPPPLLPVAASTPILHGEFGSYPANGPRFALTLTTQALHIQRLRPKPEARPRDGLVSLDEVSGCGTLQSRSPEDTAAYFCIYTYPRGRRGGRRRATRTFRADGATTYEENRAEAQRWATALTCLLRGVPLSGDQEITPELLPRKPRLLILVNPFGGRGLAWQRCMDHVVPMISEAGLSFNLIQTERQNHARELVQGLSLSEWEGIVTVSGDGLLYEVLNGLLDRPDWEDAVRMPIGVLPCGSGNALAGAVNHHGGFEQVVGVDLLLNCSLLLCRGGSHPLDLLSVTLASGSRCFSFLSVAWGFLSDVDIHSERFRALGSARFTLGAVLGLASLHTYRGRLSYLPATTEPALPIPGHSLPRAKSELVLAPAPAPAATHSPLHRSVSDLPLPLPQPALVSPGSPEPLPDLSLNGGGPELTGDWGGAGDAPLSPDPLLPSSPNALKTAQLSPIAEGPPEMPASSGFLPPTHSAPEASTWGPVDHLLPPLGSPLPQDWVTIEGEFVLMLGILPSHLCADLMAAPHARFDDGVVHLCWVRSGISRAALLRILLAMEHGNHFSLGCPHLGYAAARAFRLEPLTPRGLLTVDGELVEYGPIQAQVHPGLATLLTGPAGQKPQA
Method: The importance of phosphorylation in the activity of compound 6 was then examined. In this study MEF knockout lines that show the same differential sensitivity to compound 6 relative to its enantiomers as leukemia cells were used (FIG. 10h). […] A phosphate and a non-phosphorylatable analog of compound 6 were then tested.

[7] = test system: CCRF-CEM Ph- ALL cell line; assay: Cell viability assay, CCRF-CEM; format: cell-based, human; conditions: 72 h, vital dye exclusion and flow cytometry, read-out: Mean IC50 (+/- SEM) in cell viability assay, CCRF-CEM Ph- ALL
Text: as §1, §2, §3

[8] = test system: BV173 Ph+ ALL cell line; assay: Cell viability assay, BV173; format: cell-based, human; conditions: 72 h, vital dye exclusion and flow cytometry, read-out: Mean IC50 (+/- SEM) in cell viability assay, BV173 Ph+ ALL
Text: as §1, §2, §3

[9] = test system: BMp190 cells (murine bone marrow transduced with BCR-Abl p190); assay: Cell viability assay, BCR-Abl p190-expressing murine bone marrow (BM-p190); format: cell-based; conditions: 72 h, vital dye exclusion and flow cytometry, read-out: Mean IC50 (+/- SEM) in cell viability assay, BM-p190
Text: as §1, §2, §3

[10] = Mouse heart rate by telemetry; format: in vivo; conditions: telemetry for 24 h after administration of anti-cancer dose
Text: (§4) As previously discussed, FTY720 itself cannot be used in cancer patients because phosphorylation of FTY720 by SphKs makes FTY720-P, which acts at S1P receptors to cause bradycardia and immunosuppression (on-target effect for primary use).

[11] = test system: circulating lymphocytes; assay: Lymphocyte sequestration (circulating lymphocytes); format: in vivo, mouse; conditions: number of circulating lymphocytes 12 h after dosage
Text: as §4

- IC50 [1]: 7.7 ± 0.8 µM
- IC50 [2]: 10.8 ± 0.4 µM
- IC50 [5]: 14.3 ± 1.2 µM
- IC50 [7]: 11 ± 1.3 µM
Structure (SMILES): CCCCCCCCc1ccc(CO[C@H]2CN[C@H](CO)C2)cc1.Cl [Compound 5]
- IC50 [3]: 7.5 ± 0.1 µM
- IC50 [4]: 15 ± 2.1 µM
- phosphorylation by sphingosine kinase 2 in cells [6]: phosphorylated by sphingosine kinase 2 in cells
- IC50 [8]: 10.4 ± 0.7 µM
- IC50 [9]: 5.7 ± 1.1 µM

Structure (SMILES): CCCCCCCCc1ccc(CO[C@@H]2CN[C@@H](C)C2)cc1.Cl [Compound 14]
- ability to kill leukemia cells, potency compared in words [1]: decreased the activity

Structure (SMILES): CCCCCCCCc1ccc(CO[C@@H]2CN[C@@H](COC)C2)cc1.Cl [Compound 15, (2R,4S)-2-(methoxymethyl)-4-((4-octylbenzyl)oxy)-pyrrolidine hydrochloride salt]
- ability to kill leukemia cells, potency compared in words ([1]; hydrochloride salt): reduced the potency

Structure (SMILES): CCCCCCCCc1ccc(COC2CCNC2)cc1.Cl (centres unmarked) [Compound 16]
- ability to kill leukemia cells, potency compared in words [1]: only a marginal effect on activity

- IC50 ([1]; Homo sapiens, SUP-B15): 6.8 ± 0.7 µM
- IC50 ([2]; Homo sapiens, DU-145): 6.5 ± 0.9 µM
- IC50 ([5]; Homo sapiens): 9.8 ± 0.9 µM
- IC50 ([7]; Homo sapiens, CCRF-CEM): 6.8 ± 0.3 µM
- lymphocyte sequestration / immunosuppression [11]: causes lymphocyte sequestration
Structure (SMILES): CCCCCCCCc1ccc(CCC(N)(CO)CO)cc1.Cl [FTY720, 2-Amino-2-[2-(4-octylphenyl)ethyl]propane 1,3-diol hydrochloride]
- IC50 ([3]; Homo sapiens): 5.5 ± 0.1 µM
- IC50 ([4]; Homo sapiens, NALM-6): 9.6 ± 1.9 µM
- effect on heart rate [10]: dramatic drop in heart rate
- IC50 ([8]; Homo sapiens, BV-173): 6.3 ± 0.4 µM
- IC50 ([9]; Mus musculus): 3.3 ± 0.2 µM

Structure (SMILES): CCCCCCCCc1ccc(CO[C@H]2CN[C@H](C)C2)cc1.Cl [Compound 13]
- ability to kill leukemia cells, potency compared in words [1]: no detectable effect on the potency
